Measurements: US12122761B2, “2-azaspiro[3.4]octane derivatives as M4 agonists” (NOVARTIS AG, priority 2019, dated 2024)

Key:
[1] = molecular target: T1, Cloned human M1 receptor (CHRM1) stably expressed in HEK293 cells (Homo sapiens, UniProt P11229); assay: CHRM1 Ca++ Flux Assay (agonist mode, FDSS 7000EX); format: cell-based; details: for Emax: HEK293, Percent Activity, read-out: M1 FDSS PA; for EC50: geometric mean if tested more than once
T1 construct: expressed in transfected cells; host or cells: HEK293
T1 sequence (P11229 1-460): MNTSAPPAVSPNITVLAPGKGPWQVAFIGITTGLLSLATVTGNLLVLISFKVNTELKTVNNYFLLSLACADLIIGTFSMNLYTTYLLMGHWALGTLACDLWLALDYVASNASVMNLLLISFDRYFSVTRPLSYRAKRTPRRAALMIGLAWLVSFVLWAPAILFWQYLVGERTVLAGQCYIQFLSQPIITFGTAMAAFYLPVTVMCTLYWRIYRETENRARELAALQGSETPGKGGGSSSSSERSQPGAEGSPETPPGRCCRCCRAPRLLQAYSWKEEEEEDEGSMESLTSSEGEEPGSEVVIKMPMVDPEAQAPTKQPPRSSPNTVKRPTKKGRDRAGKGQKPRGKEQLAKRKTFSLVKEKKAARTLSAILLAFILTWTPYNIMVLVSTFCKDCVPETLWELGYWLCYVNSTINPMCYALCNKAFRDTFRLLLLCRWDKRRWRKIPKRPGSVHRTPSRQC
Summary of the method: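 Compounds tested as agonists at 11 concentrations in triplicate, with calcium traces captured over 3 minutes. Cells were HEK293 with stable human CHRM1 expression, plated overnight at 25K/well and loaded with calcium dye. Responses normalized to carbachol EC100 and fitted by four-parameter nonlinear regression.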

[2] = molecular target: T2, human cloned CHRM4 receptor (M4_CHO cells) (Homo sapiens, UniProt P08173); assay: CHRM4 Ca++ Flux Assay (agonist mode, FDSS 7000EX); format: cell-based; details: for Emax: Percent Activity, read-out: M4 FDSS PA; for EC50: geometric mean if tested more than once, read-out: M4 FDSS EC50
T2 construct: expressed in transfected cells; host or cells: CHO-K1
T2 sequence (P08173 1-479): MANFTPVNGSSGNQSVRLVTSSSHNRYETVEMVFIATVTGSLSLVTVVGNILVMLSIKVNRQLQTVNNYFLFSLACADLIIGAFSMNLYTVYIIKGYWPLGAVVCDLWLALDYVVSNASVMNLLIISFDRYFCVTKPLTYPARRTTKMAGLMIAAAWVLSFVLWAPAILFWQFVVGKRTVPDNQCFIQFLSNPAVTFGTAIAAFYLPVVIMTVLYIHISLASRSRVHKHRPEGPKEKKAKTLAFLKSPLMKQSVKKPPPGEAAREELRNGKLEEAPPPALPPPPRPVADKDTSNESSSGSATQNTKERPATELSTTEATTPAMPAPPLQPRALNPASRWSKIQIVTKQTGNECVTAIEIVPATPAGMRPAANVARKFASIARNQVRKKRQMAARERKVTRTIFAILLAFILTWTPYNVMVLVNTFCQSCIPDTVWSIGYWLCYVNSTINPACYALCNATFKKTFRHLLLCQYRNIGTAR
Summary of the method: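 M4_CHO cells loaded with a Ca++ dye for at least 1 h were held 60 min at room temperature in HEPES/probenecid buffer with 20 μM ATP. Ca++ flux after an 11-point compound dose, in triplicate and agonist mode, was recorded over 3 min. Four-parameter fits gave curves, with activity expressed relative to the Carbachol EC100.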

Compound | Emax [1] [%] | EC50 [1] [nM] | Emax [2] [%] | EC50 [2] [nM]
c1ccc(C2CCN([C@@H]3CCC4(C3)CN(c3cncnc3)C4)CC2)c(C2CCOCC2)c1 [Example 5BB, (R)-2-(pyrimidin-5-yl)-6-(4-(2-(tetrahydro-2H-pyran-4-yl)phenyl)piperidin-1-yl)-2-azaspiro[3.4]octane] | 72 | 201 | 80 | 17
Fc1ccc(N2CC3(CC[C@@H](N4CCC(c5ccccc5C5CCOCC5)CC4)C3)C2)cn1 [Example 5CC, (R)-2-(6-fluoropyridin-3-yl)-6-(4-(2-(tetrahydro-2H-pyran-4-yl)phenyl)piperidin-1-yl)-2-azaspiro[3.4]octane] | 36 | 335 | 84 | 22
COc1ccccc1C1CCN([C@@H]2CCC3(C2)CN(c2cnc(C)cn2)C3)CC1 [Example 5DD, (R)-6-(4-(2-methoxyphenyl)piperidin-1-yl)-2-(5-methylpyrazin-2-yl)-2-azaspiro[3.4]octane] | 0 | 1260 | 26 | 82
Cc1nccnc1N1CC2(CC[C@@H](N3CCC(c4ccccc4OCC(C)(C)O)CC3)C2)C1 [Example 5T, (R)-2-methyl-1-(2-(1-(2-(3-methylpyrazin-2-yl)-2-azaspiro[3.4]octan-6-yl)piperidin-4-yl)phenoxy)propan-2-ol] | 34 | 537 | 25 | 63
CC(C)(O)COc1ccccc1C1CCN([C@@H]2CCC3(C2)CN(c2ncncn2)C3)CC1 [Example 5U, (R)-1-(2-(1-(2-(1,3,5-triazin-2-yl)-2-azaspiro[3.4]octan-6-yl)piperidin-4-yl)phenoxy)-2-methylpropan-2-ol] | 2 | 672 | 49 | 28
COc1ccc(F)cc1C1CCN([C@@H]2CCC3(C2)CN(c2ccnnc2)C3)CC1 [Example 5V, (R)-6-(4-(5-fluoro-2-methoxyphenyl)piperidin-1-yl)-2-(pyridazin-4-yl)-2-azaspiro[3.4]octane] | 60 | 215 | 59 | 20
Fc1cccc(C2CCN([C@@H]3CCC4(C3)CN(c3cncnc3)C4)CC2)c1OC1COC1 [Example 5W, (R)-6-(4-(3-fluoro-2-(oxetan-3-yloxy)phenyl)piperidin-1-yl)-2-(pyrimidin-5-yl)-2-azaspiro[3.4]octane] | 60 | 52 | 90 | 1
COCCOc1ccccc1C1CCN([C@@H]2CCC3(C2)CN(c2cccnn2)C3)CC1 [Example 5X, (R)-6-(4-(2-(2-methoxyethoxy)phenyl)piperidin-1-yl)-2-(pyridazin-3-yl)-2-azaspiro[3.4]octane] | 0 | > 25000 | 24 | 54
COCCOc1ccccc1C1CCN([C@@H]2CCC3(C2)CN(c2cnc(C)cn2)C3)CC1 [Example 5Y, (R)-6-(4-(2-(2-methoxyethoxy)phenyl)piperidin-1-yl)-2-(5-methylpyrazin-2-yl)-2-azaspiro[3.4]octane] | 0 | > 25000 | 0 | > 25000
COCCOc1ccccc1C1CCN([C@@H]2CCC3(C2)CN(c2ccnnc2)C3)CC1 [Example 5Z, (R)-6-(4-(2-(2-methoxyethoxy)phenyl)piperidin-1-yl)-2-(pyridazin-4-yl)-2-azaspiro[3.4]octane] | 21 | 413 | 44 | 42
O=C(C1COC1)N1CC2(CC[C@@H](N3CCC(c4ccc(F)cc4OC(F)F)CC3)C2)C1 [Example 6B, (R)-(6-(4-(2-(difluoromethoxy)-4-fluorophenyl)piperidin-1-yl)-2-azaspiro[3.4]octan-2-yl)(oxetan-3-yl)methanone] | 90 | 12 | 50 | 5
CC(C)Oc1cc(F)ccc1C1CCN([C@@H]2CCC3(C2)CN(C(=O)C2COC2)C3)CC1 [Example 6D, (R)-(6-(4-(4-fluoro-2-isopropoxyphenyl)piperidin-1-yl)-2-azaspiro[3.4]octan-2-yl)(oxetan-3-yl)methanone] | 18 | 18 | 53 | 11
O=C(N1CC2(CC[C@@H](N3CCC(c4ccccc4C4CCOCC4)CC3)C2)C1)C1(F)CC1 [Example 6E, (R)-(1-fluorocyclopropyl)(6-(4-(2-(tetrahydro-2H-pyran-4-yl)phenyl)piperidin-1-yl)-2-azaspiro[3.4]octan-2-yl)methanone] | 67 | 120 | 65 | 3
O=C(C1COC1)N1CC2(CC[C@@H](N3CCC(c4ccccc4OC4CC4)CC3)C2)C1 [Example 7A, (R)-(6-(4-(2-cyclopropoxyphenyl)piperidin-1-yl)-2-azaspiro[3.4]octan-2-yl)(oxetan-3-yl)methanone] | 75 | 9 | 71 | 4
CC(C)(F)COc1ccccc1C1CCN([C@@H]2CCC3(C2)CN(C(=O)C2COC2)C3)CC1 [Example 7B, (R)-(6-(4-(2-(2-fluoro-2-methylpropoxy)phenyl)piperidin-1-yl)-2-azaspiro[3.4]octan-2-yl)(oxetan-3-yl)methanone] | 78 | 15 | 44 | 4
O=C(C1COC1)N1CC2(CC[C@@H](N3CCC(c4ccccc4Oc4nccs4)CC3)C2)C1 [Example 7C, (R)-oxetan-3-yl(6-(4-(2-(thiazol-2-yloxy)phenyl)piperidin-1-yl)-2-azaspiro[3.4]octan-2-yl)methanone] | 87 | 11 | 39 | 4
CC(C)(O)CCOc1ccccc1C1CCN([C@@H]2CCC3(C2)CN(C(=O)C2COC2)C3)CC1 [Example 7CC, (R)-(6-(4-(2-(3-hydroxy-3-methylbutoxy)phenyl)piperidin-1-yl)-2-azaspiro[3.4]octan-2-yl)(oxetan-3-yl)methanone] | 94 | 6 | 46 | 5
N#CCCOc1ccccc1C1CCN([C@@H]2CCC3(C2)CN(C(=O)C2COC2)C3)CC1 [Example 7D, (R)-3-(2-(1-(2-(oxetane-3-carbonyl)-2-azaspiro[3.4]octan-6-yl)piperidin-4-yl)phenoxy)propanenitrile] | 114 | 3 | 57 | 2
O=C(C1COC1)N1CC2(CC[C@@H](N3CCC(c4ccccc4OCCOC(F)(F)F)CC3)C2)C1 [Example 7DD, (R)-oxetan-3-yl(6-(4-(2-(2-(trifluoromethoxy)ethoxy)phenyl)piperidin-1-yl)-2-azaspiro[3.4]octan-2-yl)methanone] | 86 | 116 | 42 | 27
O=C(C1COC1)N1CC2(CC[C@@H](N3CCC(c4ccccc4OC[C@@H]4CCOC4)CC3)C2)C1 [Example 7E, oxetan-3-yl((R)-6-(4-(2-(((R)-tetrahydrofuran-3-yl)methoxy)phenyl)piperidin-1-yl)-2-azaspiro[3.4]octan-2-yl)methanone] | 101 | 46 | 59 | 3
O=C(C1COC1)N1CC2(CC[C@@H](N3CCC(c4ccccc4OCCOC4COC4)CC3)C2)C1 [Example 7EE, (R)-oxetan-3-yl(6-(4-(2-(2-(oxetan-3-yloxy)ethoxy)phenyl)piperidin-1-yl)-2-azaspiro[3.4]octan-2-yl)methanone] | 98 | 73 | 61 | 6
CC(C)COc1ccccc1C1CCN([C@@H]2CCC3(C2)CN(C(=O)C2COC2)C3)CC1 [Example 7F, (R)-(6-(4-(2-isobutoxyphenyl)piperidin-1-yl)-2-azaspiro[3.4]octan-2-yl)(oxetan-3-yl)methanone] | 75 | 42 | 60 | 14
